The test system of data set [1] is MKN-45 (human gastric cancer) cell line. As to the kind of experiment: Cell proliferation assay (MTT), MKN-45. In kind it is cell-based. As to conditions: 48 h exposure, n = 3 (mean ± SD), read-out: Proliferative inhibition IC50, MKN-45. As for the experimental part: (§1) The anti-proliferative activities of the prepared compounds (12a-12s) were evaluated against A549, MCF-7 and MKN-45 cell lines by MTT assay in vitro. Briefly, tumour cells were cultured to log phase in RPMI 1640 medium supplemented with 10% foetal bovine serum (FBS). After diluting to 2 × 10^4 cells mL^−1 with the complete medium, 100 µL of the obtained cell suspension was added to each well of 96-well culture plates. Subsequently, incubation was performed at 37 °C in 5% CO2 for 24 h before the anti-proliferative assessment. Tested samples at pre-set concentrations were added to 6 wells with cabozantinib as a positive reference. After 48 h exposure period, 40 µL of PBS containing 2.5 mg mL^−1 of MTT was added to each well. Four hours later, 100 µL extraction solution (10% SDS-5% isobutyl alcohol-0.010M HCl) was added. After an overnight incubation at 37°C, the absorbance was measured at a wavelength of 570 nm with an ELISA microplate reader. All compounds were tested three times in each tumour cell lines. The IC50 values were the averages of three determinations and calculated by concentration-response curve fitting method.
(§2) All the synthesised compounds […] were evaluated for their antiproliferation activities against A549 (human lung cancer), MCF-7 (human breast cancer) and MKN-45 (human gastric cancer) cell lines by MTT assay, using cabozantinib as the positive control.

Data set [2] deals with A549 (human lung cancer) cell line. As to the kind of experiment: Cell proliferation assay (MTT), A549. In kind it is cell-based. As to conditions: 48 h exposure, n = 3 (mean ± SD), read-out: Proliferative inhibition IC50, A549. As for the experimental part:
as §1, §2

Data set [3] deals with MCF-7 (human breast cancer) cell line. As to the kind of experiment: Cell proliferation assay (MTT), MCF-7. Format: cell-based. As to conditions: MCF7, 48 h exposure, n = 3 (mean ± SD), read-out: Proliferative inhibition IC50, MCF-7. As for the experimental part:
as §1, §2

The next data set has as its target T1, c-Met kinase (Homo sapiens, UniProt P08581).
T1 construct: purchased Carna
As to the kind of experiment: c-Met inhibition assay (Caliper motility shift assay). In kind it is biochemical. As to conditions: for c-Met inhibition % Inhibition (10 μΜ): 10 μΜ compound; for c-Met inhibition % Inhibition (10 μΜ) / IC50: n = 3 (mean ± SD); for c-Met inhibitory activity in words: SAR statement, ortho-substituted compounds. As for the experimental part: A Caliper motility shift assay was applied to test the potency of synthesised compounds against c-Met kinase. Briefly, the compounds were dissolved in DMSO (Sigma) at 0.5 mM concentration, and then were diluted 50× to the final desired highest inhibitor concentration (10 μM) in reaction by DMSO. For all compounds, 100 μL of the diluted compound solution in tubes was transferred to a well on a 96-well plate (Corning) and was serially diluted 10× by transferring 10 μL dilution to 90 μL DMSO in the next well. 100 μL DMSO was added to two empty wells in the same 96-well plate for no compound control and no enzyme control. The plate was marked as source plate. 10 μL of compound solution from source plate was transferred to a new 96-well plate as the intermediate plate. […] After that, 5 μL solution from each well of the intermediate plate was transferred to a 384-well plate (Corning) as the assay plate in duplicates.c-Met kinase (Carna) was added in 1× kinase base buffer to prepare 2.5× enzyme solution, and FAM-labled peptide (GL Biochem) and ATP (Sigma) were added in 1× kinase base buffer to prepare 2.5× peptide solution. 10 μL of 2.5× enzyme solution was added to each well of the 384-well assay plate that already contained 5 μL of compound in 10% DMSO, and then incubated at room temperature for 10 min. […] The data were collected on Caliper and the conversion data were copied from Caliper program.
IC50 values were calculated from three independent experiments by fitting the data in XLfit with the following equation: Y = Bottom + (Top-Bottom)/(1 + (IC50/X)^HillSlope).

Each structure is given as a SMILES string. Bounds are passed on as bounds.

Data on 5 molecules can be found in publication PMC6237173, “Synthesis of novel 6,7-dimethoxy-4-anilinoquinolines as potent c-Met inhibitors” (Journal of Enzyme Inhibition and Medicinal Chemistry, 2018).

The term IC50 denotes the concentration that gives 50% inhibition. The melting point is the temperature, or range, at which the solid turns liquid.

T1 sequence (P08581 25-1390): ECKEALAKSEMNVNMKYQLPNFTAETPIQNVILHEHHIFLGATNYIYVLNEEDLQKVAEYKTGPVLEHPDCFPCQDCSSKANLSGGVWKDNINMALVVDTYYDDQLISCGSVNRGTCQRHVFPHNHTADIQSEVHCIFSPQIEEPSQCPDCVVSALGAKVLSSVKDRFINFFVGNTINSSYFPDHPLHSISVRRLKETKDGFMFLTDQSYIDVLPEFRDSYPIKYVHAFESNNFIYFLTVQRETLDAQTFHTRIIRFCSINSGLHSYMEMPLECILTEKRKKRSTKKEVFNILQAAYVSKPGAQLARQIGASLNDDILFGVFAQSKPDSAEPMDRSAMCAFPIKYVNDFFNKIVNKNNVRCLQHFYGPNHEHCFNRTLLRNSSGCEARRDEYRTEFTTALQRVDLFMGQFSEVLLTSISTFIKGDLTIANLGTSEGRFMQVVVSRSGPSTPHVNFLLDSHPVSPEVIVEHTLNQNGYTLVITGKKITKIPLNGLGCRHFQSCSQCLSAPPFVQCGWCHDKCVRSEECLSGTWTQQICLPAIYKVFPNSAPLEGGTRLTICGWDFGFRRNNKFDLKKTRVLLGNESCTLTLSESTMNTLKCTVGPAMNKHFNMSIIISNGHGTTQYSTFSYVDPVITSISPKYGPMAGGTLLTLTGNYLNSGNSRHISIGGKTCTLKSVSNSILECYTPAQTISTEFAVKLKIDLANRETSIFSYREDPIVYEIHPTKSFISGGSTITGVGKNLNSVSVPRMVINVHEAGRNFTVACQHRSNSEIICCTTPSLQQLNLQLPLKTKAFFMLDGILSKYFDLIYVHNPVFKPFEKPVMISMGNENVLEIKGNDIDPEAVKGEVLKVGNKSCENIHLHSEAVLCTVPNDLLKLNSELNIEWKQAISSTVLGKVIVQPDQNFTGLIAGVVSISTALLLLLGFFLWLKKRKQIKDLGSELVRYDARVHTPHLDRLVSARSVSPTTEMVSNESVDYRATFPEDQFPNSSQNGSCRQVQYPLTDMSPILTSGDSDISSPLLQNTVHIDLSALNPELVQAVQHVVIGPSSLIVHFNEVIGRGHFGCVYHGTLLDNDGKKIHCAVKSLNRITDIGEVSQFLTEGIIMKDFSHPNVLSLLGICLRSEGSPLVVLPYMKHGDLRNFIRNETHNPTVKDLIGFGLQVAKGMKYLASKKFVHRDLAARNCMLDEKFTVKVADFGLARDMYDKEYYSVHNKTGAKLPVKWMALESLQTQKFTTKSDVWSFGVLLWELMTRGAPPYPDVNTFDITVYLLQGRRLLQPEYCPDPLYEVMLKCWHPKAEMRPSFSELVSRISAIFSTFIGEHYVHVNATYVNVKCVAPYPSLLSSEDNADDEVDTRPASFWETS

`COc1cc2nccc(Nc3ccc4nc(-c5ccc(C)cc5)[nH]c4c3)c2cc1OC` [Compound 12l, 6,7-Dimethoxy-N-(2-(p-tolyl)-1H-benzo[d]imidazol-6-yl)quinolin-4-amine] showed a melting point of 316 to 319 °C. The IC50 in data set [1] was determined as 31.8 ± 1.4 µM. In data set [2], the half-maximal inhibitory concentration (IC50) was determined as 27.3 ± 1.6 µM. Moreover, the IC50 in data set [3] was found to be 24 ± 0.9 µM. On c-Met kinase, the “c-Met inhibition % Inhibition (10 μΜ)” value turned out to be 69.0 ± 1.2% and the IC50 is 320 ± 70 nM.

Take `COc1cc2nccc(Nc3ccc4nc(-c5ccccc5Cl)[nH]c4c3)c2cc1OC` [Compound 12d, N-(2–(2-chlorophenyl)-1H-benzo[d]imidazol-6-yl)-6,7-dimethoxyquinolin-4-amine]: the melting point was in the range of 287 to 290 °C. Besides, the IC50 in data set [1] was above 100 µM. Further, the IC50 in data set [2] was above 100 µM. Also, in data set [3], the IC50 is above 100 µM. Also, the “c-Met inhibition % Inhibition (10 μΜ)” value at c-Met kinase was 17.4 ± 3.7%.

Take `COc1cc2nccc(Nc3ccc4nc(-c5c(Cl)cccc5Cl)[nH]c4c3)c2cc1OC` [Compound 12q, N-(2–(2,6-dichlorophenyl)-1H-benzo[d]imidazol-6-yl)-6,7-dimethoxyquinolin-4-amine]: the melting point was 254 to 257 °C. Further, in data set [1], the IC50 is above 100 µM. In data set [2], the IC50 is above 100 µM. The IC50 in data set [3] is above 100 µM. Further, on c-Met kinase, the “c-Met inhibition % Inhibition (10 μΜ)” value was 37.0 ± 4.0% and the “c-Met inhibitory activity in words” value is given as “loss of activity”.

Turning to `COc1cc2nccc(Nc3ccc4nc(-c5ccc(Cl)cc5)[nH]c4c3)c2cc1OC` [Compound 12f, N-(2–(4-chlorophenyl)-1H-benzo[d]imidazol-6-yl)-6,7-dimethoxyquinolin-4-amine], the melting point is 330 to 332 °C. Further, in data set [1], the IC50 came to 39.5 ± 2.5 µM. The IC50 in data set [2] came out at 32.4 ± 3.6 µM. Moreover, the IC50 in data set [3] was 29.2 ± 1.4 µM. For the same molecule, at c-Met kinase, the “c-Met inhibition % Inhibition (10 μΜ)” value amounted to 63.8 ± 0.7% and the IC50 stood at 930 ± 100 nM. In addition, the “fold lower c-Met activity than compound 12c” value at c-Met kinase (ratio of c-Met IC50 values, versus 12c) is recorded as “about 9 fold”.

Molecule `COc1cc2nccc(Nc3ccc4nc(-c5ccccc5F)[nH]c4c3)c2cc1OC` [Compound 12a, N-(2–(2-fluorophenyl)-1H-benzo[d]imidazol-6-yl)-6,7-dimethoxyquinolin-4-amine] displayed a melting point of 247 to 249 °C. In addition, in data set [1], the IC50 is above 100 µM. Moreover, the IC50 in data set [2] is above 100 µM. Also, in data set [3], the IC50 is above 100 µM. At c-Met kinase, the “c-Met inhibition % Inhibition (10 μΜ)” value worked out at 16.9 ± 3.5% and the “c-Met inhibitory activity in words” value was “diminished activity”.
